The term pIC50 denotes −log10 of the IC50, conventionally taken in molar units. The term solubility denotes the concentration that dissolves in the medium under given conditions. Low readings indicate little dissolved substance, high ones much dissolved substance. As a reminder, the half-life is the time needed for the level to fall by half in the phase considered.

Molecules are shown by their SMILES. pIC50: −log10 of the molar value. Values after ≈ are worked out from the molar mass of the structure shown. Active and inactive are the calls of the source.

The results in this text go back to ChEMBL document CHEMBL5625232, “Development of selective class I protein arginine methyltransferase inhibitors through fragment-based drug design approach” (Eur J Med Chem, 2023).

Series [1] deals with T1, Protein arginine N-methyltransferase 3 (Homo sapiens, UniProt O60678). Briefly: Displacement of 3H-SAM from human PRMT3 in presence of substrate by SPA assay.
Target sequence in this assay (O60678 whole entry): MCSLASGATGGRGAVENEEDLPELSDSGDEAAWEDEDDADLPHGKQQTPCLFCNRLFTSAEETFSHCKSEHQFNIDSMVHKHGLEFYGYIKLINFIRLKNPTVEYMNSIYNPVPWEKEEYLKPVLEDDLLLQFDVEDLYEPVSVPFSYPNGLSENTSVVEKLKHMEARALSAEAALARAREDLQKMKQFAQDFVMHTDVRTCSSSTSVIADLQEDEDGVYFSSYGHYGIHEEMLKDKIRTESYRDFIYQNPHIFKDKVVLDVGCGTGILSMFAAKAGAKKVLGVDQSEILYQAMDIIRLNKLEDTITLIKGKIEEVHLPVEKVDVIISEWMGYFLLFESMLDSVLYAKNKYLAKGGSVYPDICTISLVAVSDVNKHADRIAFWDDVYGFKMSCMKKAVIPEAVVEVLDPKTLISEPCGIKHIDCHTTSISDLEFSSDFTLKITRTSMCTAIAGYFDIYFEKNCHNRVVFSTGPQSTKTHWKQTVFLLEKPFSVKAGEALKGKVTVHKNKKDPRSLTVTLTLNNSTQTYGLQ
The target in series [2] is T1, Protein arginine N-methyltransferase 3. Briefly: Displacement of 3H-SAM from human PRMT3 at 10 uM in presence of substrate by SPA assay. A general note: Displacement assays read how much labelled ligand stays bound in the presence of the test substance.
Target sequence in this assay (O60678 2-531 limits assumed): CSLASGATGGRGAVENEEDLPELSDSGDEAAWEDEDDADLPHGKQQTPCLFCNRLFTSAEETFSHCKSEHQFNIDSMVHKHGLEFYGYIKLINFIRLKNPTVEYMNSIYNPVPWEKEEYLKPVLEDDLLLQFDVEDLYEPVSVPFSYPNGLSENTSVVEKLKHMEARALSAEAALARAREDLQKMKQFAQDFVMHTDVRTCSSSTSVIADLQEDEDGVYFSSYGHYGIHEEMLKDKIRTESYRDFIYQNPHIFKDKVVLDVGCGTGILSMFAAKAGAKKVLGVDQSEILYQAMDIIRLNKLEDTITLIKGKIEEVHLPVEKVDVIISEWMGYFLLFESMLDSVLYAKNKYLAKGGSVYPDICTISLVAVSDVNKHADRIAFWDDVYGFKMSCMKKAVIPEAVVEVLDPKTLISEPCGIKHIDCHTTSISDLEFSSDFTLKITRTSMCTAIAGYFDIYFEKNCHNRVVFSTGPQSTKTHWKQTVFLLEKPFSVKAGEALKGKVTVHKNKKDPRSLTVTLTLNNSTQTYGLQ
For series [3], the target named is T2, Protein arginine N-methyltransferase 7 (Homo sapiens) (UniProt Q9NVM4).
T2 sequence (whole entry): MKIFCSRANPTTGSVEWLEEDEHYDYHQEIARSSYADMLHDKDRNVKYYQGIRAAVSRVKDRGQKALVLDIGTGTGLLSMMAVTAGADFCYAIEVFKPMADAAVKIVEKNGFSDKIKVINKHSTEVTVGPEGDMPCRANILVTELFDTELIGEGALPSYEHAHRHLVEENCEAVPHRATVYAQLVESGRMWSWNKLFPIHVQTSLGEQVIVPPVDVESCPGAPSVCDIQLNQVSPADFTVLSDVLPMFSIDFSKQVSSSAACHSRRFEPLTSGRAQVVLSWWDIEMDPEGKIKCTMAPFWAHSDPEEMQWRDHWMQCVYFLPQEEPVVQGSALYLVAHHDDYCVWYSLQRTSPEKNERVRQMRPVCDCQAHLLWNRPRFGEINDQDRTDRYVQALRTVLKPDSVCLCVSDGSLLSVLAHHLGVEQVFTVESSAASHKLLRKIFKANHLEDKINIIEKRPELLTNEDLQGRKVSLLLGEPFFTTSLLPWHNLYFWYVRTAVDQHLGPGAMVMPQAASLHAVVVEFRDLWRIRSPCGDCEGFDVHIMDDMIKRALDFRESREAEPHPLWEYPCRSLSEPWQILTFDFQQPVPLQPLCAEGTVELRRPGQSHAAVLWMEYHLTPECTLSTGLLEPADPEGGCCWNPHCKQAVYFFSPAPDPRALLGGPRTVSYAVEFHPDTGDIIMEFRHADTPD
Briefly: Displacement of 3H-SAM from human PRMT7 at 10 uM in presence of substrate by SPA assay.

Series [4] has as its target T3, Protein arginine N-methyltransferase 8 (Homo sapiens, UniProt Q9NR22). Briefly: Displacement of 3H-SAM from human PRMT8 in presence of substrate by SPA assay.
Target sequence in this assay (Q9NR22 whole entry): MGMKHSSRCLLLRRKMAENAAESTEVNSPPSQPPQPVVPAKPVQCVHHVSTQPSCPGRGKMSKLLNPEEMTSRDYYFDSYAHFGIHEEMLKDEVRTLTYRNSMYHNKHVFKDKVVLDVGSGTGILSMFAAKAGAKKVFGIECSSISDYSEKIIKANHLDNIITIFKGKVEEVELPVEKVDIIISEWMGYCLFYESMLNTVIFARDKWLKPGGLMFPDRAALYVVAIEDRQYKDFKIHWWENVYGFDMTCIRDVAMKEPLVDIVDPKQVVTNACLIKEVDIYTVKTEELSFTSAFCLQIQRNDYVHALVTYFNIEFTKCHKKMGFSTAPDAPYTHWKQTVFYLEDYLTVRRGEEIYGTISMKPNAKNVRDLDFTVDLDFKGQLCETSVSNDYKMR
For series [5], the target named is T3, Protein arginine N-methyltransferase 8. Briefly: Displacement of 3H-SAM from human PRMT8 at 10 uM in presence of substrate by SPA assay.
Target sequence in this assay (Q9NR22 2-394 limits assumed): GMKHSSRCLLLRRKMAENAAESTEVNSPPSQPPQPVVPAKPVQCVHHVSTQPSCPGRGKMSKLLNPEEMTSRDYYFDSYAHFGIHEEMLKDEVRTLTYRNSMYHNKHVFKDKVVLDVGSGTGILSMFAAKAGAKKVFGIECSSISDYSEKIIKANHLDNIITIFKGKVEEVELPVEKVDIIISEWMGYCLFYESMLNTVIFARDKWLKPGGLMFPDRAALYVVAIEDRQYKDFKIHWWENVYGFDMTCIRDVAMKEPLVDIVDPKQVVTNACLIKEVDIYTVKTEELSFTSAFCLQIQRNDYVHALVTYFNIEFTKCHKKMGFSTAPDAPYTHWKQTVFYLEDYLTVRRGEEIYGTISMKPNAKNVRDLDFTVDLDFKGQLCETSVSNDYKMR
The target of series [6] is T4, Protein arginine N-methyltransferase 6 (Homo sapiens, UniProt Q96LA8). Put plainly: Displacement of 3H-SAM from human PRMT6 in presence of substrate by SPA assay.
Target sequence in this assay (Q96LA8 whole entry): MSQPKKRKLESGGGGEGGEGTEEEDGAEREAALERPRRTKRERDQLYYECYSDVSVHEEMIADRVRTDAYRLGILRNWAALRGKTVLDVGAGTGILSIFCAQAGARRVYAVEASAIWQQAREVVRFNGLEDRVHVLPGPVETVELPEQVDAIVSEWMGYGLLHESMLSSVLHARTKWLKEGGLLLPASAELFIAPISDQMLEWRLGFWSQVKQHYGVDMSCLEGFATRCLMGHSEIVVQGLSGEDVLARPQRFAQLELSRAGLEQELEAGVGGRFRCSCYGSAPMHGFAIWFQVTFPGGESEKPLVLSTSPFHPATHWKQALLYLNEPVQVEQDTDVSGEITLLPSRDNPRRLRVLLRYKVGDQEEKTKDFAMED
For series [7], the target named is T5, Histone-arginine methyltransferase CARM1 (Homo sapiens) (UniProt Q86X55).
T5 sequence (whole entry): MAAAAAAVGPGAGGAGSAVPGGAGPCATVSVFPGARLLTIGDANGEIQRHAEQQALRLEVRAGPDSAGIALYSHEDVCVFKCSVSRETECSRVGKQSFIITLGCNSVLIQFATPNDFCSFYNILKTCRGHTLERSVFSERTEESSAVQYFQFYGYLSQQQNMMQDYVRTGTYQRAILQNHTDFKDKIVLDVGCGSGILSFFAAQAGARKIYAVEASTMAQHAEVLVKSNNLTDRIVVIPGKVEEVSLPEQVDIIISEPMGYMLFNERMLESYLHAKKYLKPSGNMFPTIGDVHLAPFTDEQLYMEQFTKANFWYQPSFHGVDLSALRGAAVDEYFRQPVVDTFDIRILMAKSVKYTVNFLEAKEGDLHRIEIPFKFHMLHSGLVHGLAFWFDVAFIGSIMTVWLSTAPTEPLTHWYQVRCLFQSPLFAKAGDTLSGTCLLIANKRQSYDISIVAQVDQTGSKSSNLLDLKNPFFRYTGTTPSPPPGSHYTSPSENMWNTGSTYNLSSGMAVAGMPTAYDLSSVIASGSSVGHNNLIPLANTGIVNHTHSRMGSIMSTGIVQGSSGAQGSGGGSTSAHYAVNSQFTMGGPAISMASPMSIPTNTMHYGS
Put plainly: Displacement of 3H-SAM from human PRMT4 at 10 uM in presence of substrate by SPA assay.

The target of series [8] is T6, Histone-arginine methyltransferase CARM1 (Homo sapiens, UniProt Q86X55).
T6 sequence (Q86X55 whole entry): T5 sequence (whole entry)
Put plainly: Displacement of 3H-SAM from human PRMT4 in presence of substrate by SPA assay.

The target in series [9] is Protein arginine N-methyltransferase 5 (Homo sapiens) (UniProt O14744). Briefly: Displacement of 3H-SAM from human PRMT5 at 10 uM in presence of substrate by SPA assay.
The target of series [10] is T4, Protein arginine N-methyltransferase 6. Put plainly: Displacement of 3H-SAM from human PRMT6 at 10 uM in presence of substrate by SPA assay.
Target sequence in this assay (Q96LA8 whole entry, looked up): as the sequence (Q96LA8 whole entry) above
Series [11] addresses T7, Protein arginine N-methyltransferase 9 (Homo sapiens) (UniProt Q6P2P2).
T7 sequence (whole entry): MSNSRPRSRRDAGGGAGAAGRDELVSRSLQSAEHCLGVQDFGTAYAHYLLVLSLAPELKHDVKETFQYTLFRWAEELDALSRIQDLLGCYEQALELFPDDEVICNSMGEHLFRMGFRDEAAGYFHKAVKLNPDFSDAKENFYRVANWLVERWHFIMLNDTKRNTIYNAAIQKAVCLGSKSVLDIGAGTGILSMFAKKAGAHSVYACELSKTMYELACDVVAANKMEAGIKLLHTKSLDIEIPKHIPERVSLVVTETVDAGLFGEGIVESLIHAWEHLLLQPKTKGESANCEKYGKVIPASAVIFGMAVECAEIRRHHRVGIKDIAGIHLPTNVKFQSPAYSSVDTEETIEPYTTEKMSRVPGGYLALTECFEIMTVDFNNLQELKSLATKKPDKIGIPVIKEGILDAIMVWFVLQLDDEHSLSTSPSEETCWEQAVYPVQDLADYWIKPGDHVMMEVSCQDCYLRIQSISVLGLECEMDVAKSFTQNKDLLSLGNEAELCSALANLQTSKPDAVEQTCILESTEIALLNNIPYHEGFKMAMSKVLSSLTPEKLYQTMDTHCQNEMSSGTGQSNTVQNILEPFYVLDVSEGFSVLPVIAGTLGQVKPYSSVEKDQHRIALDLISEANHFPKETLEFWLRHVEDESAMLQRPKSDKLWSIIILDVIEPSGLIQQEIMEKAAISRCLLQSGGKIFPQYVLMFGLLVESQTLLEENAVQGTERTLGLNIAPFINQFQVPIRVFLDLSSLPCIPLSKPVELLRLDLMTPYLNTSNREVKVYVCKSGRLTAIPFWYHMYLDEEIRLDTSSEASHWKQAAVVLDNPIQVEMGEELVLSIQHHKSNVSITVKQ
Put plainly: Displacement of 3H-SAM from human PRMT9 at 10 uM in presence of substrate by SPA assay.

Series [12] is described as follows: Aqueous solubility of compound at pH 7.4 incubated for 24 hrs by HPLC-UV spectroscopy. The series is classed as physicochemical. The settings on record: aqueous medium.
The nature of series [13]: Metabolic stability in human liver microsomes assessed as half life preincubated for 10 mins followed by NADPH addition measured for 60 mins by LC-MS/MS analysis. The settings on record: time 70 min. The series is classed as ADME, Microsome. Background: Liver microsomes are vesicles of endoplasmic reticulum, rich in cytochrome P450 enzymes.
Series [14] in a line: Stability in human plasma assessed as compound remaining measured after 2 hrs by LC-MS/MS analysis. Type of series: ADME, cell-free. The settings on record: read-out: Stability.

Sequence of Protein arginine N-methyltransferase 5 (Homo sapiens) (O14744 whole entry): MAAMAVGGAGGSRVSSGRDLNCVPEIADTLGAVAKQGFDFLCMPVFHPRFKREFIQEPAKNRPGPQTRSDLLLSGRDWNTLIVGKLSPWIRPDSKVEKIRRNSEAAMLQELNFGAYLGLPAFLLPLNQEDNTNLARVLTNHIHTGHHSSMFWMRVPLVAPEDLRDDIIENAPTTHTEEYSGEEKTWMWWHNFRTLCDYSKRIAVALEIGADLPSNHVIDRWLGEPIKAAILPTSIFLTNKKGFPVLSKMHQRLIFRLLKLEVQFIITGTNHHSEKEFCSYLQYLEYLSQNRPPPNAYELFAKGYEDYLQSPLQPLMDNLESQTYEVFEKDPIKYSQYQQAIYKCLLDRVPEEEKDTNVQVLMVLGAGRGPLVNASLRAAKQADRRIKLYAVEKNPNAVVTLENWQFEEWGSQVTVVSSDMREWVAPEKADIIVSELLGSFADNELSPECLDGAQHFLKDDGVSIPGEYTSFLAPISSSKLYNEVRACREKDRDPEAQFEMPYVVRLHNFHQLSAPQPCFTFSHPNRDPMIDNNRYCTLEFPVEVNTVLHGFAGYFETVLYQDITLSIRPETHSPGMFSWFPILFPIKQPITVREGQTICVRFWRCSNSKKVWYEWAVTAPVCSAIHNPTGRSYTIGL

For the molecule `CNCCN1CC[C@H](NC(=O)c2ccc3c(Nc4ccc(CN)cc4)ncnc3c2)C1`, the negative logarithm of the IC50 (pIC50) in series [1] was 2.86; in series [4] it was 3.08; in series [6], 3.36; in [8], 4.04. Moreover, the inhibition result in series [2], in series [3], in series [5], in series [7], in [9] and in series [10] was “Active” in each case. Further, the inhibition result in series [11] was “Active”.

Take `CNCCN1CCC(NC(=O)c2ccc3c(Nc4ccc(CN)cc4)ncnc3c2)C1` (racemic): the negative logarithm of the IC50 (pIC50) in series [1] was 2.51; in [4] it was 2.61; in [6] it was 3.15; in [8] it was 4.10. The molecule also came in with a solubility at 24 h in [12] of 187 µg/mL (≈ 446 µM). For the same molecule, the inhibition entry in series [2], in series [3], in series [5], in series [7], in [9] and in series [10] was “Active” in each case. Besides, in [11], the inhibition result was “Active”. The half-life in series [13] was found to be 10.9 min. Also, in series [14], the remaining at 2 h was 91.3%.

Turning to `CNCCN1CC[C@@H](NC(=O)c2ccc3c(Nc4ccc(CN)cc4)ncnc3c2)C1`, the negative logarithm of the IC50 (pIC50) was 2.45 in [1], 3.10 in series [4], 3.60 in [6] and 4.43 in series [8]. The molecule further returned a solubility at 24 h in [12] of 210 µg/mL (≈ 501 µM). The inhibition entry in [2], in series [3], in [5], in [7], in [9] and in [10] was “Active” throughout. Also, the inhibition entry in [11] was “Active”. Also, the half-life in series [13] stood at 23 min. Further, in series [14], the remaining at 2 h turned out to be 71.2%.
